This note sets out measurements from patent US20210177796A1, “COMPOSITION FOR PREVENTING OR TREATING INFLAMMATORY DISEASES, CONTAINING MARINE FUNGUS PENICILLIUM SP. SF-5859-DERIVED CURVULARIN-TYPE METABOLITES” (KOREA INSITITUTE OF OCEAN SCIENCE AND TECHNOLOGY, priority 2017, published 2021).

Read-outs that look alike come from different tables or passages of the source.

The IC50 is the midpoint of a concentration-inhibition curve.

Common to all, as to assay type: cell-based
Series [1] has as its system NO production in LPS-treated RAW 264.7 macrophages. Nature of the series: Inhibition of NO (nitrite) production in LPS-treated RAW264.7 macrophages, Griess reaction. As to conditions: RAW 264.7 macrophages pre-treated 3 hours, then LPS (1 μg/mL) 24 hours. The procedure:
As an indicator of NO production in RAW264.7 macrophages, production of nitrite, which is a stable end-product of NO oxidation, was evaluated. The concentration of nitrite in conditioned media was determined based on the Griess reaction.
(§1) In the present example, RAW264.7 macrophages were pre-treated for 3 hours in the medium containing non-toxic concentrations (Table 1) of each compound (Formula 1 to 4), and then LPS (1 μg/mL) was treated for 24 hours. According to the LPS stimulation of RAW264.7 macrophages, the production of NO and PGE2 was increased, and the effects of all compounds on the production levels of NO and PGE2 were evaluated by the Griess reaction and a PGE2 kit, respectively.
In general terms: Griess reagent forms a coloured azo dye with nitrite.

Series [2] relates to PGE2 production in LPS-treated RAW 264.7 macrophages. Nature of the series: Inhibition of PGE2 production in LPS-treated RAW264.7 macrophages, PGE2 ELISA kit. As to conditions: RAW 264.7 macrophages pre-treated 3 hours, then LPS (1 μg/mL) 24 hours.
Text: RPMI1640, fetal bovine serum (FBS), and other tissue culture reagents were purchased from Gibco BRL Co. (Grand Island, N.Y., USA). All other chemicals were obtained from Sigma-Aldrich Co. (St. Louis, Mo., USA). Primary antibodies (COX-2: sc-1745; iNOS: sc-650; IκB-α: sc-371; p-IκB-α: sc-8404; p50: sc-7178; p65: sc-8008, Santa Cruz Biotechnology, Dallas, Tex., USA, p-ERK: #9101; ERK: #9102; p-JNK: #9251; JNK: #9252S; p-p38: #9211; p38: 9212S, Cell Signaling Technology, Danvers, Mass., USA) and secondary antibodies (mouse: ap124p; goat: ap106p; rabbit: ap132p, Millipore, Billerica Mass., USA) were used. Enzyme-linked immunosorbent assay (ELISA) kits for PGE2 were purchased from R and D Systems, Inc. (Minneapolis, Minn., USA).
as §1

Series [3] concerns RAW264.7 macrophages. Nature of the series: Cytotoxicity by MTT assay. The procedure:
In the present example, the cytotoxicity of each of the compounds of Formula 1 to 4 was confirmed in RAW264.7 macrophages by MTT assay.
RAW264.7 macrophages were maintained at a density of 5×10^5 cells/mL in RPMI1640 medium supplemented with 10% heat-inactivated FBS, penicillin G (100 units/mL), streptomycin ([…]), and L-glutamine (2 mM), and were incubated at 37° C. in a humidified atmosphere containing 5% CO2. To determine cell viability, cells (1×10^5 cells/well in 96-well plates) were incubated with 3-(4,5-dimethylthiazol-2-yl)-2,5-diphenyltetrazolium bromide (MTT) at a final concentration of 0.5 mg/mL for 3 hours, and the formazan formed was dissolved in acidic 2-propanol. The optical density was measured at 540 nm with a microplate reader (BioRad, Hercules, Calif., USA). The optical density of the formazan formed in control (untreated) cells was considered to represent 100% viability.
On the technique in general: Tetrazolium assays rely on reduction of a dye to a coloured formazan, in cell work by metabolically active cells.

The test system of series [4] is iNOS. Nature of the series: iNOS protein expression in LPS-stimulated RAW264.7 macrophages. As to conditions: pre-treated 3 hours, LPS 24 hours; FIG. 1(a). How it is done: (§2) Therefore, the inventors of the present invention further tested whether the inhibitory effects of the compound of Formula 3 against NO and PGE2 productions are correlated with the protein expression of pro-inflammatory enzymes (e.g., iNOS or COX-2, respectively), which are known to catalyze the production of NO and PGEs in LPS-stimulated cells. RAW264.7 macrophages were pre-treated with the indicated concentrations of the compound of Formula 3 for 3 hours, and then stimulated with LPS for 24 hours. The presence of the compound of Formula 3 led to the attenuation of the excessive protein expression of iNOS and COX-2 in a dose-dependent manner (see FIG. 1(a)).

The test system of series [5] is COX-2. Kind of series: COX-2 protein expression in LPS-stimulated RAW264.7 macrophages. Particulars: pre-treated 3 hours, LPS 24 hours; FIG. 1(a). The procedure: as §2
Series [6] has as its system IL-1β. Nature of the series: IL-1β mRNA expression in LPS-induced cells, RT-qPCR. Particulars: pre-treated 3 hours, LPS (1 μg/mL) 6 hours; FIG. 1(b). How it is done:
(§3) In addition, upon stimulation by LPS, macrophages can trigger the production of pro-inflammatory cytokines such as TNF-α and ILs. The overproduction of these cytokines contributes to the pathogenesis of inflammatory diseases. Thus, the inventors of the present invention further evaluated the effects of the compound of Formula 3 on the mRNA expression of pro-inflammatory cytokines in the LPS-induced cells. The cells were pre-treated with indicated concentration for 3 hours, followed by LPS stimulation (1 μg/mL) for 6 hours. The mRNA expression of pro-inflammatory cytokines was determined by RT-qPCR.
(Real-time PCR tracks product formation cycle by cycle.)

Series [7] has as its system IL-6. Kind of series: IL-6 mRNA expression in LPS-induced cells, RT-qPCR. As to conditions: pre-treated 3 hours, LPS (1 μg/mL) 6 hours; FIG. 1(c). How it is done: as §3
Series [8] deals with TNF-α. Nature of the series: TNF-α mRNA expression in LPS-induced cells, RT-qPCR. As to conditions: pre-treated 3 hours, LPS (1 μg/mL) 6 hours; FIG. 1(d). How it is done:
as §3

The test system of series [9] is NF-κB (p50 and p65). Nature of the series: NF-κB activation: nuclear translocation of p50 and p65 in LPS-induced RAW264.7 macrophages. As to conditions: FIG. 2(a).
For series [10], the system named is IκB-α. Kind of series: IκB-α phosphorylation and degradation in LPS-induced RAW264.7 macrophages. As to conditions: FIG. 2(b). The procedure:
(§4) In the present example, a NF-κB ELISA kit (Active Motif) was used to test the nuclear extracts and determine the degree of NF-κB binding. […] Furthermore, when the cells were treated with LPS alone, the phosphorylation level of IκB-α was increased, whereas the compound of Formula 3 attenuated this phosphorylation of IκB-α. In addition, the compound of Formula 3 blocked the degradation of IκB-α in a concentration-dependent manner (see FIG. 2(b)). In line with these, LPS-induced DNA binding activity of NF-κB was declined in the nuclear extracts of the cells co-treated with the compound of Formula 3 (see FIG. 2(c)).

In series [11] the test system is NF-κB. Nature of the series: DNA binding activity of NF-κB in nuclear extracts, NF-κB ELISA kit. As to conditions: FIG. 2(c). The procedure: as §4
Series [12] concerns p38. Kind of series: LPS-induced p38 phosphorylation in RAW264.7 macrophages. As to conditions: LPS 30 minutes; FIG. 3(a). The text has this: (§5) Mitogen-activated protein kinase (MAPK) pathways are known to be involved in the expression of pro-inflammatory cytokines in macrophages. Thus, the effect of the compound of Formula 3 on the LPS-induced phosphorylation of MAPK was examined.

For series [13], the system named is c-Jun N-terminal kinase (JNK). Nature of the series: LPS-induced JNK phosphorylation in RAW264.7 macrophages. Particulars: LPS 30 minutes; FIG. 3(b).
Text: as §5

Series [14] relates to extracellular signal-regulated kinase (ERK). Kind of series: LPS-induced ERK phosphorylation in RAW264.7 macrophages. As to conditions: LPS 30 minutes; FIG. 3(c).
Text: as §5

As for 5,7-Di-O-acetylcurvularin [Formula 1e], the IC50 in series [1] was 77.5 ± 9.3 µM; in series [2], over 80 µM. For the same compound, the “Cytotoxicity (μM): the maximum concentration not affecting cell viability” value in series [3] is over 80 µM.
Taken in the same sequence, the figures for 5,7-Di-O-methylcurvularin [Formula 1c] were 60.6 ± 16.4 µM, 49.4 ± 14 µM and over 80 µM.
As to `CC1CCCCCC(=O)c2c(O)cc(O)cc2CC(=O)O1` (stereo not drawn) [Formula 1a, curvularin], the concentration for half-maximal inhibition (IC50) in [1] was found to be 18.1 ± 5.2 µM; in series [2], 18.7 ± 4.9 µM. For the same compound, in [3] (RAW264.7 macrophages, MTT), the “Cytotoxicity (μM): the maximum concentration not affecting cell viability” value turned out to be 40 µM.
Taken in the same sequence, the figures for `COc1cc(O)c2c(c1)CC(=O)O[C@@H](C)CCCCCC2=O` [Formula 1b, 5-O-methylcurvularin] were over 80 µM, 40.2 ± 5.1 µM and over 80 µM.
As to `CC(=O)Oc1cc(O)c2c(c1)CC(=O)O[C@@H](C)CCCCCC2=O` [Formula 1d, 5-O-acetylcurvularin], the concentration for half-maximal inhibition (IC50) turned out to be 46.9 ± 3.7 µM in series [1] and 73.7 ± 17.1 µM in [2]. Further, the “Cytotoxicity (μM): the maximum concentration not affecting cell viability” value in series [3] was over 80 µM.
In the case of `C[C@H]1CCC[C@@H](O)CC(=O)c2c(O)cc(O)cc2CC(=O)O1` [Formula 2a, (11R,15S)-11-hydroxycurvularin], the IC50 in [1] turned out to be 11.5 ± 2.7 µM; in [2] it was 15.6 ± 5.2 µM. Further, the “Cytotoxicity (μM): the maximum concentration not affecting cell viability” value in [3] (RAW264.7 macrophages, MTT) is 40 µM.
Taken in the same sequence, the figures for `C[C@H]1CCC[C@H](O)C(=O)c2c(O)cc(O)cc2CC(=O)O1` [Formula 2b, (11S,15S)-11-hydroxycurvularin] were 7.2 ± 1.6 µM, 14.1 ± 4 µM and 40 µM.
In the case of `CO[C@@H]1CCC[C@H](C)OC(=O)Cc2cc(O)cc(O)c2C(=O)C1` [Formula 2c, (11R,15S)-11-methoxycurvularin], the IC50 is 2.6 ± 0.4 µM in series [1] and 3 ± 1.3 µM in series [2]. The “Cytotoxicity (μM): the maximum concentration not affecting cell viability” value in [3] (RAW264.7 macrophages, MTT) came out at 20 µM.
In the same order, the values of `CO[C@H]1CCC[C@H](C)OC(=O)Cc2cc(O)cc(O)c2C1=O` [Formula 2d, (11S,15S)-11-methoxycurvularin] are 3.5 ± 0.5 µM, 6 ± 1.9 µM and 20 µM.
As for `C[C@H]1CCC/C=C/C(=O)c2c(O)cc(O)cc2CC(=O)O1` [Formula 3, (10E,15S)-10,11-dehydrocurvularin], the 50% inhibitory concentration (IC50) in [1] (Mus musculus, RAW264.7) stood at 1.9 ± 0.3 µM. The IC50 in series [2] (Mus musculus, RAW264.7) stood at 2.7 ± 0.4 µM. In addition, the “Cytotoxicity (μM): the maximum concentration not affecting cell viability” value in series [3] (RAW264.7 macrophages, MTT) came out at 20 µM. In addition, in series [4], the “Protein expression of iNOS” value is “attenuation”. Also, the “Protein expression of COX-2” value in series [5] is recorded as “attenuation”. Also, the “mRNA expression of IL-1β” value in series [6] was “significantly suppressed”. The “mRNA expression of IL-6” value in [7] is “significantly suppressed”. The “mRNA expression of TNF-α” value in [8] is listed as “significantly suppressed”. Further, the “Nuclear translocation of p50 and p65” value in series [9] is “dose-dependently suppressed”. In addition, in series [10], the “Degradation of IκB-α” value is “blocked” and the “Phosphorylation of IκB-α” value is “attenuated”. The “LPS-induced DNA binding activity of NF-κB” value in [11] is listed as “declined”. In [12], the “Phosphorylation of p38” value is “did not suppress”. The “Phosphorylation of JNK” value in series [13] is listed as “did not suppress”. For the same compound, the “Phosphorylation of ERK” value in series [14] is recorded as “did not suppress”.
Regarding `C[C@H]1CCC/C=C\C(=O)c2c(O)cc(O)cc2CC(=O)O1` [Formula 4, (10Z,15S)-10,11-dehydrocurvularin], the 50% inhibitory concentration (IC50) in [1] (Mus musculus, RAW264.7) was found to be 4.4 ± 0.8 µM; in [2] (Mus musculus, RAW264.7) it was 6.2 ± 1.1 µM. The “Cytotoxicity (μM): the maximum concentration not affecting cell viability” value in [3] (RAW264.7 macrophages, MTT) is 20 µM.
